Data from PubChem BioAssay (NCI).
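Five compound concentrations were applied to cells in 96-well plates for 48 hours; endpoints were derived by simple linear interpolation of the resulting dose-response curve. GI50: concentration for 50% inhibition of growth. TGI denotes the concentration required for complete inhibition of growth.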

How the values were obtained:
Experiment in all cases: inhibition of tumour cell growth, NCI panel, 48 h
A498 renal = system: A498 renal
A549 NSCLC = system: A549 NSCLC
ACHN renal = system: ACHN renal
CAKI-1 renal = system: CAKI-1 renal
CCRF-CEM leukemia = system: CCRF-CEM leukemia
COLO 205 colon = system: COLO 205 colon
DU-145 prostate = system: DU-145 prostate
EKVX NSCLC = system: EKVX NSCLC
HCC-2998 colon = system: HCC-2998 colon
HCT-116 colon = system: HCT-116 colon
HCT-15 colon = system: HCT-15 colon
HL-60(TB) leukemia = system: HL-60(TB) leukemia
HOP-62 NSCLC = system: HOP-62 NSCLC
HOP-92 NSCLC = system: HOP-92 NSCLC
HS 578T breast = system: HS 578T breast
HT29 colon = system: HT29 colon
IGROV1 ovarian = system: IGROV1 ovarian
K-562 leukemia = system: K-562 leukemia
KM12 colon = system: KM12 colon
LOX IMVI melanoma = system: LOX IMVI melanoma
M14 melanoma = system: M14 melanoma
MALME-3M melanoma = system: MALME-3M melanoma
MCF7 breast = system: MCF7 breast
MDA-MB-231 breast = system: MDA-MB-231 breast
MDA-MB-435 = system: MDA-MB-435
MOLT-4 leukemia = system: MOLT-4 leukemia
NCI-H226 lung = system: NCI-H226 lung
NCI-H23 lung = system: NCI-H23 lung
NCI-H460 lung = system: NCI-H460 lung
NCI-H522 lung = system: NCI-H522 lung
NCI/ADR-RES ovarian = system: NCI/ADR-RES ovarian
OVCAR-3 ovarian = system: OVCAR-3 ovarian
OVCAR-4 ovarian = system: OVCAR-4 ovarian
OVCAR-5 ovarian = system: OVCAR-5 ovarian
OVCAR-8 ovarian = system: OVCAR-8 ovarian
PC-3 prostate = system: PC-3 prostate
RPMI-8226 leukemia = system: RPMI-8226 leukemia
RXF 393 renal = system: RXF 393 renal
SF-295 CNS = system: SF-295 CNS
SF-539 CNS = system: SF-539 CNS
SK-MEL-2 melanoma = system: SK-MEL-2 melanoma
SK-MEL-28 melanoma = system: SK-MEL-28 melanoma
SK-MEL-5 melanoma = system: SK-MEL-5 melanoma
SN12C renal = system: SN12C renal
SNB-19 CNS = system: SNB-19 CNS
SNB-75 CNS = system: SNB-75 CNS
SR leukemia = system: SR leukemia
SW-620 colon = system: SW-620 colon
T-47D breast = system: T-47D breast
TK-10 renal = system: TK-10 renal
U251 CNS = system: U251 CNS
UACC-257 melanoma = system: UACC-257 melanoma
UACC-62 melanoma = system: UACC-62 melanoma
UO-31 renal = system: UO-31 renal

ClCc1c(Cl)c(Cl)c(Cl)c(CCl)c1Cl
GI50 (A498 renal): 2.45 µM
TGI (A498 renal): 12.5 µM
GI50 (A549 NSCLC): 4.8 µM
TGI (A549 NSCLC): 16.3 µM
GI50 (ACHN renal): 1.64 µM
TGI (ACHN renal): 3 µM
GI50 (CAKI-1 renal): 1.68 µM
TGI (CAKI-1 renal): 3.1 µM
GI50 (CCRF-CEM leukemia): 0.841 µM
TGI (CCRF-CEM leukemia): 3.28 µM
GI50 (COLO 205 colon): 1.83 µM
TGI (COLO 205 colon): 3.33 µM
GI50 (DU-145 prostate): 1.98 µM
TGI (DU-145 prostate): 3.99 µM
GI50 (EKVX NSCLC): 1.81 µM
TGI (EKVX NSCLC): 4.15 µM
GI50 (HCC-2998 colon): 1.78 µM
TGI (HCC-2998 colon): 3.45 µM
GI50 (HCT-116 colon): 1.71 µM
TGI (HCT-116 colon): 3.17 µM
GI50 (HCT-15 colon): 1.52 µM
TGI (HCT-15 colon): 2.85 µM
GI50 (HL-60(TB) leukemia): 2.03 µM
TGI (HL-60(TB) leukemia): 4.07 µM
GI50 (HOP-62 NSCLC): 2.15 µM
TGI (HOP-62 NSCLC): 4.25 µM
GI50 (HOP-92 NSCLC): 1.55 µM
TGI (HOP-92 NSCLC): 3.15 µM
GI50 (HS 578T breast): 2.15 µM
TGI (HS 578T breast): 5.61 µM
GI50 (HT29 colon): 1.79 µM
TGI (HT29 colon): 3.3 µM
GI50 (IGROV1 ovarian): 1.97 µM
TGI (IGROV1 ovarian): 4.19 µM
GI50 (K-562 leukemia): 1.8 µM
TGI (K-562 leukemia): 4.37 µM
GI50 (KM12 colon): 1.85 µM
TGI (KM12 colon): 3.48 µM
GI50 (LOX IMVI melanoma): 1.46 µM
TGI (LOX IMVI melanoma): 3.13 µM
GI50 (M14 melanoma): 1.66 µM
TGI (M14 melanoma): 3.43 µM
GI50 (MALME-3M melanoma): 1.55 µM
TGI (MALME-3M melanoma): 3.79 µM
GI50 (MCF7 breast): 1.73 µM
TGI (MCF7 breast): 3.7 µM
GI50 (MDA-MB-231 breast): 1.81 µM
TGI (MDA-MB-231 breast): 3.29 µM
GI50 (MDA-MB-435): 2.16 µM
TGI (MDA-MB-435): 5.68 µM
GI50 (MOLT-4 leukemia): 2.41 µM
TGI (MOLT-4 leukemia): 5.86 µM
GI50 (NCI-H226 lung): 2.53 µM
TGI (NCI-H226 lung): 7.3 µM
GI50 (NCI-H23 lung): 2.3 µM
TGI (NCI-H23 lung): 6.67 µM
GI50 (NCI-H460 lung): 1.79 µM
TGI (NCI-H460 lung): 3.39 µM
GI50 (NCI-H522 lung): 1.51 µM
TGI (NCI-H522 lung): 3.12 µM
GI50 (NCI/ADR-RES ovarian): 3.5 µM
TGI (NCI/ADR-RES ovarian): 17.3 µM
GI50 (OVCAR-3 ovarian): 1.86 µM
TGI (OVCAR-3 ovarian): 3.26 µM
GI50 (OVCAR-4 ovarian): 1.62 µM
TGI (OVCAR-4 ovarian): 2.98 µM
GI50 (OVCAR-5 ovarian): 1.93 µM
TGI (OVCAR-5 ovarian): 4.18 µM
GI50 (OVCAR-8 ovarian): 2.51 µM
TGI (OVCAR-8 ovarian): 6.03 µM
GI50 (PC-3 prostate): 1.69 µM
TGI (PC-3 prostate): 3.15 µM
GI50 (RPMI-8226 leukemia): 1.86 µM
TGI (RPMI-8226 leukemia): 4.24 µM
GI50 (RXF 393 renal): 1.71 µM
TGI (RXF 393 renal): 3.08 µM
GI50 (SF-295 CNS): 9.07 µM
TGI (SF-295 CNS): 27.7 µM
GI50 (SF-539 CNS): 3.72 µM
TGI (SF-539 CNS): 13.5 µM
GI50 (SK-MEL-2 melanoma): 2.2 µM
TGI (SK-MEL-2 melanoma): 5.07 µM
GI50 (SK-MEL-28 melanoma): 1.95 µM
TGI (SK-MEL-28 melanoma): 3.96 µM
GI50 (SK-MEL-5 melanoma): 2.23 µM
TGI (SK-MEL-5 melanoma): 6.25 µM
GI50 (SN12C renal): 1.91 µM
TGI (SN12C renal): 4.03 µM
GI50 (SNB-19 CNS): 1.94 µM
TGI (SNB-19 CNS): 4.23 µM
GI50 (SNB-75 CNS): 2.15 µM
TGI (SNB-75 CNS): 7.73 µM
GI50 (SR leukemia): 1.48 µM
TGI (SR leukemia): 5 µM
GI50 (SW-620 colon): 1.71 µM
TGI (SW-620 colon): 3.12 µM
GI50 (T-47D breast): 1.99 µM
TGI (T-47D breast): 3.87 µM
GI50 (TK-10 renal): 1.56 µM
TGI (TK-10 renal): 2.89 µM
GI50 (U251 CNS): 1.71 µM
TGI (U251 CNS): 3.08 µM
GI50 (UACC-257 melanoma): 1.84 µM
TGI (UACC-257 melanoma): 3.45 µM
GI50 (UACC-62 melanoma): 1.61 µM
TGI (UACC-62 melanoma): 3.13 µM
GI50 (UO-31 renal): 1.63 µM
TGI (UO-31 renal): 3.12 µM
